Assay results: patent US20160120915A1, “METHODS FOR MANIPULATING IMMUNE RESPONSES BY ALTERING MICROBIOTA” (NEW YORK UNIVERSITY, priority 2013, published 2016)
Where a name gives a salt, the structure may show the parent alone.

Legend:
[1] = system: small intestinal lamina propria T-helper cells; test: NOD: flow cytometry of Treg and Th17 cells in spleen and SI-LP; assay type: in vivo, NOD mice; settings: for percent of SI-LP Th17 (CD4+RORγT+) cells / percent of SI-LP Treg (CD4+ FOXP3+) cells: 6-week old male NOD mice, vs controls
Method: After euthanasia of the mice by CO2 asphyxiation followed by cervical dislocation, the small intestines were dissected and immediately placed in cold calcium and magnesium-free DPBS, followed by removal of the mesenteric fat and Peyer's patches. The intestines were opened longitudinally and contents were removed by washing thoroughly with cold DPBS. The intestines were then cut into 2 cm pieces and treated with 10 ml 1 mM DTT/PBS, shaken at RT for 10 minutes to remove contaminating intraepithelial lymphocytes. Subsequently, the intestinal tissue was treated two times with 30 mM EDTA and 10 mM HEPES in PBS to remove epithelial cells. To isolate lamina propria lymphocytes, intestinal tissue was digested for 1.5 hours at 37° C. in digestion mix (0.5 mg/ml Collagenase/Dispase (Roche), 150 μg /ml DNase 1 (Sigma) in complete RPMI. Cells were passed through a 100 μm diameter nylon mesh filter (BD Bioscience). For further purification of leukocytes, intestinal cell suspensions were resuspended in 40% Percoll, under-layered with 80% Percoll (GE Healthcare Life Sciences) and centrifuged at 2,200 rpm for 25 minutes at room temperature. The leukocytes were collected at the interphase of the 40% 80% discontinuous Percoll gradient, then washed and re-suspended in DPBS for staining.
Cells were incubated with blue Live/DEAD fixable dye (Invitrogen) for 10 minutes at 4° C. to identify live cells. Intestinal leukocytes were phenotyped using the following antibodies: CD3-APC-Cy™7 (BD Biosciences), CD4− PE-Alexa Fluor 610 (Invitrogen), CD8− V500 (BD Biosciences), RORγt-PE (eBioscience), Foxp3-PE-Cy7 (eBioscience). Cells were first incubated with surface antibodies (each at 1:50 in FACS buffer) along with FC block (Anti-Mouse CD16/CD32, eBioscience) at 1:200 for 30 minutes at 4° C. Then the cells were fixed and permeabilized with Fix/Perm (eBioscience) and subsequently incubated with the nuclear antibodies in perm/wash buffer for 30 minutes at 4° C. (eBioscience).
All cells were acquired on a LSRII (BD Biosciences) and analyzed using FlowJo software (version 9.3.2; Tree Star Inc.).
Flow cytometry was performed on splenic and SI-LP cells from 6-week old male and female NOD mice. CD3 and CD4 surface stains and a live/dead stain were used to gate on live T-helper cells. Nuclear staining for FOXP3 and RORγT was performed to identify Treg and Th17 cells, respectively. By qPCR, SFB was below detectable limits in fecal specimens collected at 3 weeks and 6 weeks of age from all of the mice used in the above analysis. The range for SFB qPCR assay was from 10^2 to 10^6 copies of SFB. […] PAT decreased the percent of SI-LP Treg and Th17 cells in male, but not female NOD mice. C=controls, S=STAT, P=PAT. Statistical analysis was performed on each tissue separately, using the Kruskal-Wallis test followed by the Dunn's multiple comparison test, ** p≦0.01. […] This work provides evidence that PAT changes T-cell populations in the NOD mice that are developing T1D and insulitis earlier.

[2] = system: small intestine lamina propria lymphocytes; test: EL-PAT: flow cytometry of small intestine lamina propria lymphocytes; assay type: in vivo, C57BL/6 mice; settings: 7-week old; for small intestine CD4+ IL-17A+ (IL-17A expression): males, vs control
Method: For the experiments, dams and their litters were divided into control and antibiotic groups. In the EL-PAT study dams in the antibiotic groups received Tylosin tartrate (Sigma Aldrich, St. Louis Mo.) dissolved in distilled deionized water (neutral pH) at a concentration of 0.33 mg/ml, and dams in the control group received non-acidified water. Mice in the PAT3 group received two additional doses of antibiotics at day 27 and 36 of life for 3 days. In some experiments, C57BL/6 mice were exposed to one, PAT1, (n=17, M=9, F=8) or three, PAT3, (n=19, M=10, F=9) doses of the macrolide Tylosin in non-acidified water or non-acidified water alone (control, n=12, M=9, F=3), early-in-life, to mirror pediatric antibiotic exposures. For the first antibiotic pulse […] of Tylosin tartrate (Sigma) was dissolved in 250 ml of non-acidified water and given to PAT1 and PAT3 lactating dams at pup day 5 of life for 5 days. For the second and third pulse, pups received the antibiotic directly at day 27 and day 36 of life respectively, for three days. Mice were sacrificed at 7 weeks of age and fecal, ileal and cecal contents were collected. Throughout the experiment mouse weight and fecal contents were collected. After euthanasia of the mice by CO2 asphyxiation, small intestines were excised and placed in cold calcium and magnesium-free HBSS supplemented with HEPES-Bicarbonate and 5% FBS (CMF). Peyer's patches were removed and the intestine was opened longitudinally along its entire length. Intestinal contents were removed by washing thoroughly with cold CMF and treated with 1 mM DTT to remove contaminating intra-epithelial lymphocytes. Subsequently, the intestinal tissue was treated twice with 1.3 mM EDTA to remove epithelial cells. To isolate lamina propria lymphocytes, intestinal tissue was cut laterally into ˜0.5 cm pieces and digested in collagenase IV digestion mix (0.5 mg/ml of collagenase IV, 200 ug/ml of DNase 1 suspended in RPMI supplemented with 10% FBS and HEPES for 1 hour. For each digestion procedure, samples were incubated at 37° C. with vigorous shaking After each treatment, cell isolates were filtered through 100 μm diameter nylon mesh (BD Bioscience). For further purification of leukocytes, intestinal cell suspensions were subjected to a 44% /67% discontinuous Percoll (GE Healthcare Life Sciences) gradient. Cells were spun at 2,200 rpm for 20 minutes and collected at the 44% /67% Percoll interface. Viable cells were carefully removed from the interface, washed, and suspended in RPMI complete media. […] All cells were acquired on a LSRII (BD Bioscience) and analyzed using FlowJo software (version 9.3.2; Tree Star Inc.). […]

| Structure (SMILES) | percent of SI-LP Th17 (CD4+RORγT+) cells [1] | percent of SI-LP Treg (CD4+ FOXP3+) cells [1] | intestinal CD4+ IL-17A+ populations ([2]; females, three antibiotic doses, p<0.01) | CD4− IL-17A+ populations ([2]; females, three therapeutic doses, p<0.05) | small intestine CD4+ IL-17A+ (IL-17A expression) ([2]; one therapeutic dose) | small intestine CD4+ IL-17A+ (IL-17A expression) ([2]; three therapeutic doses) | decrease of percent of SI-LP Treg and Th17 cells ([1]; 6-week old female NOD mice) |
| --- | --- | --- | --- | --- | --- | --- | --- |
| CC1(C)S[C@@H]2[C@H](NC(=O)COc3ccccc3)C(=O)N2[C@H]1C(=O)[O-].[K+] [STAT, penicillin VK] | intermediate | intermediate |  |  |  |  |  |
| CC[C@H]1OC(=O)C[C@@H](O)[C@H](C)[C@@H](O[C@@H]2O[C@H](C)[C@@H](O[C@H]3C[C@@](C)(O)[C@@H](O)[C@H](C)O3)[C@H](N(C)C)[C@H]2O)[C@@H](CC=O)C[C@@H](C)C(=O)/C=C/C(C)=C/[C@@H]1CO[C@@H]1O[C@H](C)[C@@H](O)[C@@H](OC)[C@H]1OC [Tylosin, Tylosin tartrate] | decreased | decreased | significantly decreased | decreased | significantly decreased | significantly decreased | not |
